{"source": "patent US20100256146A1", "about": "“TRISUBSTITUTED PIPERIDINES” (Novartis AG, priority 2007, published 2010)"}
{"target": "T1, renin (Homo sapiens, UniProt P00797)", "T1 construct": "This test measures the formation of angiotensin I in human plasma; from tissue; host or cells: human plasma", "T1 sequence (P00797 67-406)": "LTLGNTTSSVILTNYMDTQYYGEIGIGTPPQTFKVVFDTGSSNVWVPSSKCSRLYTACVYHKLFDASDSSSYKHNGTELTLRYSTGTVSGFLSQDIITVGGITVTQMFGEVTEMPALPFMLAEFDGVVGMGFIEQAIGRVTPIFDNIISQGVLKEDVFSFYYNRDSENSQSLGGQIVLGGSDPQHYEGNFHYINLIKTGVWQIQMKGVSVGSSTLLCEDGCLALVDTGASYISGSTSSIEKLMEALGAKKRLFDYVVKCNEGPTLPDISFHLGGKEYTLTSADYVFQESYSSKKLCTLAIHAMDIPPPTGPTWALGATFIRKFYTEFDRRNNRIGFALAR", "test": "in vitro test of Nussberger et al.: formation of angiotensin I in human plasma, determined by radioimmunoassay", "assay_type": "biochemical", "conditions": "concentration of inhibitor which reduces the formation of angiotensin I in human plasma by 50%", "description": "The effect of renin inhibitors is detected inter alia experimentally by means of in vitro tests where the reduction in the formation of angiotensin I is measured in various systems (human plasma, purified human renin together with synthetic or natural renin substrate). The following in vitro test of Nussberger et al. (1987) J. Cardiovascular Pharmacol., Vol. 9, pp. 39-44, is used inter alia. This test measures the formation of angiotensin I in human plasma. The amount of angiotensin I formed is determined in a subsequent radioimmunoassay. The effect of inhibitors on the formation of angiotensin I is tested in this system by adding various concentrations of these substances. The IC50 is defined as the concentration of the particular inhibitor which reduces the formation of angiotensin I by 50%. The compounds of the present invention show inhibitory effects in the in vitro systems at minimal concentrations of about 10^−6 to about 10^−10 mol/l.", "units": {"IC50": "nM"}}
{"smiles": "COCCCN1CCOc2ccc(CO[C@H]3CNCC[C@]3(OCCOC)c3ccc(COCCOC)cc3)cc21", "note": "[Example 1, 6-{(3S,4S)-4-(2-Methoxy-ethoxy)-4-[4-(2-methoxy-ethoxymethyl)-phenyl]-piperidine-3-yloxymethyl}-4-(3-methoxy-propyl)-3,4-dihydro-2H-benzo[1,4]oxazine]", "IC50": 26.5}
{"smiles": "COCCCN1CCOc2ccc(CO[C@H]3CNCC[C@]3(OC[C@H](O)COC)c3ccc(COCCOC)cc3)cc21", "note": "[Example 2, (R)-1-Methoxy-3-{(3S,4S)-4-[4-(2-methoxy-ethoxymethyl)-phenyl]-3-[4-(3-methoxy-propyl)-3,4-dihydro-2H-benzo[1,4]oxazin-6-ylmethoxy]-piperidin-4-yloxy}-propan-2-ol]", "IC50": 10.4}
{"smiles": "COCCCN1CCOc2ccc(CO[C@H]3CNCC[C@]3(OC[C@@H](O)COC)c3ccc(COCCOC)cc3)cc21", "note": "[Example 3, (S)-1-Methoxy-3-{(3S,4S)-4-[4-(2-methoxy-ethoxymethyl)-phenyl]-3-[4-(3-methoxy-propyl)-3,4-dihydro-2H-benzo[1,4]oxazin-6-ylmethoxy]-piperidin-4-yloxy}-propan-2-ol]", "IC50": 9.5}
{"smiles": "COCCCN1CCOc2ccc(CO[C@H]3CNCC[C@]3(OCC3CCCC3)c3ccc(COCCOC)cc3)cc21", "note": "[Example 5, 6-{(3S,4S)-4-Cyclopentylmethoxy-4-[4-(2-methoxy-ethoxymethyl)-phenyl]-piperidin-3-yloxymethyl}-4-(3-methoxy-propyl)-3,4-dihydro-2H-benzo[1,4]oxazine]", "IC50": 92.5}
{"smiles": "COCCCO[C@]1(c2ccc(COC[C@@H](C)COC)cc2)CCNC[C@@H]1OCc1ccc2c(c1)N(CCCOC)CCO2", "note": "[Example 10, 6-[(3S,4S)-4-[4-((S)-3-Methoxy-2-methyl-propoxymethyl)-phenyl]-4-(3-methoxy-propoxy)-piperidin-3-yloxymethyl]-4-(3-methoxy-propyl)-3,4-dihydro-2H-benzo[1,4]oxazine]", "IC50": 3}
{"smiles": "COCCCN1CCOc2ccc(CO[C@H]3CNCC[C@]3(OCC#N)c3ccc(COC[C@@H](C)COC)cc3)cc21", "note": "[Example 12, {(3S,4S)-4-[4-((S)-3-Methoxy-2-methyl-propoxymethyl)-phenyl]-3-[4-(3-methoxy-propyl)-3,4-dihydro-2H-benzo[1,4]oxazin-6-ylmethoxy]-piperidin-4-yloxy}-acetonitrile]", "IC50": 7.5}
